This note sets out measurements from patent publication US9511070B2, “Heterocyclyl carboxamides for treating viral diseases” (NOVADRUG, LLC, priority 2012, dated 2016).

Entries after “also recorded” stand apart in the source; their conditions may differ.

One test relates to JFH-1 HCV. Particulars: viral titer at 5 μM or 15 μM compared to untreated control. The text has this:
In vitro assay for anti-HCV efficacy. HCV studies typically involve infected patients and chimpanzees. However, recently, a robust HCV infection system was developed with cells derived from the Huh-7 human hepatoma cell line. It is based on the unique JFH-1 HCV consensus cDNA derived from an HCV patient. Using reverse genetics, the infectious virus can be rescued from this HCV clone. The recovered viable JFH virus can be passaged serially in Huh-7 cells. For this reason, this system is amenable for evaluating the activity of test compound for their anti-HCV efficacy.
Briefly, 6×10^3 Huh7-1 cells are incubated overnight in each well of collagen-coated BioCoat 96-well plates (BD Biosciences, Bedford, Mass.) in 0.2 ml 10% medium composed of Dulbecco's modified Eagle's medium supplemented with 10% fetal bovine serum. Subsequently, at 2 day intervals, the cultures are replenished with fresh 0.2 ml 10% medium. After the cultures become confluent, they continue to be replenished at 2 day intervals with fresh 0.2 ml 10% medium that also includes 1% dimethyl sulfoxide (DMSO). After 20 days of these replenishments, the Huh7-1 cultures are incubated with fresh 1% medium (same as 10% medium except that the serum level is 1%) containing HCV at a multiplicity of infection (MOI) of 0.05 focus forming units (ffu)/cell. The HCV (JFH-lwt Huh7) stock titer is 1.5×10^5 ffu/mL. The next day (day 1 post-infection) and 2 days later (day 3 post-infection) the media are replenished with fresh 1% medium containing the test compounds dissolved in DMSO. On the 5th day of treatment with the compounds, cell lysates are collected for RNA isolation and Real Time-quantitative Reverse Transcription Polymerase Chain Reaction (RT-qPCR) and culture media are collected for cytotoxicity analysis.
Total RNA is isolated from cells by the guanidine thiocyanate method using standard protocols. One μg RNA is used for cDNA synthesis using TaqMan reverse transcription reagents (Applied Biosystems, Foster City, Calif.) followed by real-time PCR using an Applied Biosystems 7300 real-time thermocycler. Thermal cycling consists of initial denaturation of 10 min at 95° C. followed by 40 cycles of denaturation (15 s at 95° C.) and annealing/extension (1 m at 60° C.). HCV and human glyceraldehyde-3-phosphate dehydrogenase (GAPDH) RNA levels are determined relative to a standard curve of serial dilutions of plasmid containing JFH-1 HCV or GAPDH cDNA. The PCR primers used to detect GAPDH and HCV are: GAPDH (NMX002046) 5′-[…]-3′(SEQ ID NO: 16) (sense) and 5′-[…]-3′(SEQ ID NO: 17) (anti-sense) JFH-1 HCV (AB047639) 5′-[…]-3′(SEQ ID NO: 18) (sense) and 5′-[…]-3′(SEQ ID NO: 19) (anti-sense).

In test [1] the test system is Bovine Viral Diarrhea Virus strain NADL. Nature of the test: Anti-BVDV efficacy, cytopathic (CPE) assay in Bovine Turbinate cells (MTT). The test is classed as cell-based. Particulars: cell survival at 10 μM compared to untreated control; TABLE 4(a). The procedure: Assay for Anti-BVDV efficacy. Bovine Turbinate (BT) cells maintained as monolayers in disposable cell culture labware are used for the antiviral efficacy test. Prior to testing, host cell cultures are seeded onto the 96-well cell culture plates and used approximately 48 hours after seeding. […] The growth medium (GM) and maintenance medium (MM) include Dulbecco's Modified Eagle Media (DMEM) with L-glutamine (ATCC #30-2002), 10% Horse serum and penicillin/streptomycin (10,000 units of penicillin and 10,000 μg of streptomycin per mL, Life Technologies #15140-122 or similar) for a final concentration of 100 units penicillin and 100 μg streptomycin in the medium. Bovine Viral Diarrhea Virus strain NADL from BSLI high-titer virus stock is used. Prior to use, aliquots of the stock virus are removed and thawed from a −70° C. freezer. The BVDV is diluted in a maintenance medium (MM) to obtain 0.1 Multiplicity of Infection (MOI). Cytopathic (CPE) assay. CPE refers to degenerative changes in BT tissue culture induced by BVDV as a consequence of its multiplication. BT cell cultures are washed with PBS, and 100 μL aliquots of MM are added to the cells and incubated in a CO2 incubator for 2 hours. After incubation, the MM is removed; the cells washed again with PBS and overlaid with 100 μL of the different concentrations of test compounds. The plates are incubated in a CO2 incubator for 48 to 72 hours. […] This assay is a colorimetric assay that measures the activity of enzymes that reduce MTT to the purple color formazan dye. CPE is confirmed using an Inverted Compound Microscope.

The test system of test [2] is HIV-Bal. Nature of the test: HIV genomic DNA integration (ALU-PCR in infected PBMCs). The test is classed as cell-based, HIV-1. The note with it: 72 h post-infection; in comparison with vehicle (DMSO). The procedure: HIV Genomic DNA Integration. […] Stimulated PBMCs are infected with HIV-Bal (2 ng/mL per 10^6 cells) for 5 h. The PBMCs are then treated with compounds at desired concentrations and AZT (control) for 72 h post-infection. The cells are then washed three times with media. Genomic DNA is prepared from samples using DNeasy Blood and Tissue Kit (Qiagen). ALU-PCR is performed followed by real time PCR to quantify integrated viral genome. The following primers are used to amplify HIV transcripts: HIV LTR, Forward 5′-[…] (SEQ ID NO: 1) and Reverse 5′-[…] (SEQ ID NO: 2) and GAPDH—Forward 5′-[…] (SEQ ID NO: 3) and Reverse 5′-[…] (SEQ ID NO: 4). GADPH is used as endogenous control.

Test [3] concerns HIV-Bal. Nature of the test: HIV transcription (Rev, Gag and Env transcripts in infected PBMCs). The test is classed as cell-based, HIV-1. Particulars: 72 h post-infection; in comparison with vehicle (DMSO). The procedure: HIV transcription. […] Stimulated PBMCs are infected with HIV-Bal (2 ng/mL per 10^6 cells) for 4-6 h. PBMCs are then treated with compounds at desired concentrations and AZT (control) for 72 h post-infection. The cells are then washed three times with media and genomic RNA is prepared from samples using RNEasy MiniKit (Qiagen). Real time RT-PCR is performed to detect mature viral early (Rev) and late transcripts (Gag and Env). The following primers are used to amplify HIV transcripts: Rev, Forward 5′-[…] (SEQ ID NO: 7) and Reverse 5′-[…] (SEQ ID NO: 8); Env, Forward 5′-[…] (SEQ ID NO: 9) and Reverse 5′-[…] (SEQ ID NO: 10); Gag, Forward 5′-[…] (SEQ ID NO: 11) and Reverse 5′-[…] (SEQ ID NO: 12); GAPDH, Forward 5′-[…] (SEQ ID NO: 3) and Reverse 5′-[…] (SEQ ID NO: 4). GADPH is used as endogenous control.

The subject of test [4] is HIV-Bal. Nature of the test: HIV reverse transcription assay (2LTR circles in infected PBMCs). The format is cell-based, HIV-1. Particulars: 72 h post-infection; in comparison with vehicle (DMSO). The procedure:
HIV reverse transcription assay. Compounds described herein inhibit 2LTR circles. Stimulated PBMCs are infected with HIV-Bal (2 ng/mL per 10^6 cells) for 5 h. PBMCs are then treated with compounds at desired concentrations and AZT (control) for 72 h post-infection. The cells are then washed three times with media and genomic DNA is prepared from samples using DNeasy Blood and Tissue Kit (Qiagen). For real time PCR analysis, the following primers are used to amplify 2LTR circles (by-products of reverse transcription): Forward 5′-[…] (SEQ ID NO: 5) and Reverse 5′-[…] (SEQ ID NO: 6). […] All results represent two or three independent experiments each performed in quadruplicates; *=p<0.05, **=p<0.01, ***=p<0.001 in comparison with vehicle ([…]).

Test [5] concerns HIV-Bal. Put plainly: HIV entry (real time RT-PCR of HIV LTR in pre-treated PBMCs). The format is cell-based, HIV-1. Particulars: 10 μM or 25 μM; PBMCs pre-treated 1 h and 4 h. The text has this: The following primers are used to amplify HIV transcripts: HIV LTR, Forward 5′-[…] (SEQ ID NO: 1) and Reverse 5′-[…] (SEQ ID NO: 2) and GAPDH—Forward 5′-[…] (SEQ ID NO: 3) and Reverse 5′-[…] (SEQ ID NO: 4). GADPH is used as endogenous control.

As to `O=C(Nc1cccc(-c2cc3ccccc3[nH]2)c1)C1CCN(C(=O)c2cncs2)CC1` [Example 60], the “HCV Antiviral Activity” value in the test with JFH-1 HCV is on record as “+ (“+” corresponds to ≦60% viral titer at 15 μM)”. In test [1], the “BVDV Antiviral Activity” value is “+++ (“+++” corresponds to ≧75 cell survival at 10 μM)”.
With `CC#CC(=O)N1CCC(C(=O)Nc2cccc(-c3cc4ccccc4[nH]3)c2)CC1` [Example 57], the “HCV Antiviral Activity” value with JFH-1 HCV is reported as “++ (“++” corresponds to ≦60% viral titer at 5 μM)”. Also, in test [1], the “BVDV Antiviral Activity” value was “+++ (“+++” corresponds to ≧75 cell survival at 10 μM)”. In the test on HIV-Bal [2], the “inhibition of HIV viral integration” value is “significantly inhibits viral integration at each concentration; also recorded: significantly inhibits HIV viral integration”. For the same compound, the “inhibition of HIV transcription (Rev, Gag, Env)” value in the test with HIV-Bal [3] is reported as “significantly inhibits viral transcription at each concentration; also recorded: significantly inhibits HIV transcription”. For the same compound, the “inhibition of HIV reverse transcription (2LTR circles)” value with HIV-Bal [4] is reported as “significantly inhibits HIV reverse transcription”. The “effect on HIV entry” value in the test with HIV-Bal [5] is listed as “did not have an effect on HIV entry”.
On to `CCc1ccc(CN2CCC(C(=O)Nc3ccc(-c4nc5ccccc5[nH]4)cc3)CC2)o1` [Example 59], for which the “HCV Antiviral Activity” value in the test on JFH-1 HCV is “++ (“++” corresponds to ≦60% viral titer at 5 μM)”. Further, the “BVDV Antiviral Activity” value in test [1] is listed as “++ (“++” corresponds to >50 but <75 cell survival at 10 μM)”.
The like results for `COc1cccc(CN2CCC(C(=O)Nc3ccc(-c4nc5ccccc5[nH]4)cc3)CC2)c1` [Example 58] were, in that order, “++ (“++” corresponds to ≦60% viral titer at 5 μM)” and “+++ (“+++” corresponds to ≧75 cell survival at 10 μM)”.
For the compound `Cc1c[nH]c2ncnc(N3CCC(C(=O)Nc4ccc(-c5nc6ccccc6[nH]5)cc4)CC3)c12` [Example 99], the “BVDV Antiviral Activity” value in test [1] is given as “+++ (“+++” corresponds to ≧75 cell survival at 10 μM)”.
